Patent publication US4452793A, “29-Fluorophytosterol termiticides, compositions and methods of use therefor” (The Research Foundation of State University of New York, priority 1983, dated 1984)
Values after ≈ are worked out from the molar mass of the structure shown.

Columns and labels:
Manduca sexta [1] = assay: Sterol distribution in experimental hornworms (capillary GC of gut-purged prepupae); type: in vivo, tobacco hornworm (Manduca sexta); conditions: fed at 50 ppm in diet; mean relative area % of GC, 4 hornworms, S.D. in parentheses
Method: (§1) The recrystallized 29-fluorosterols are dissolved in dichloromethane and then coated onto the wheat germ to give a final concentration to 50 ppm (w/v) in the articifical diet. Controls receive either 50 ppm of stigmasterol or no additional sterols. The dose are varied in subsequent experiments. Twenty first instar tobacco hornworms larvae (Manduca sexta, seventh day after egg collection) are then placed on a 0.5-g slab of diet in a 1-oz dish; this is designated as Day 0 of feeding. Larvae were maintained at 65% relative humidity and 26° C. on a 17L/7D long day light regime. Diets are changed and larvae are weighed and staged daily. The mean survival, weight gain, and developmental periods of the experimental hornworms are shown relative to a group of twenty control larvae in FIG. 1.
Four gut-purged prepupae from each experiment are frozen and later are analyzed individually for sterol composition. Each hornworm is homogenized (1:1 chloroform-methanol), the lipids is saponified, and the non-saponifiable lipis are chromatographed to give the sterol fraction. Analysis by capillary GC (Durabon DB-5 or DB-1701) allowed resolution an accurate quantification of cholesterol, desmosterol, campesterol, stiosterol and fucosterol from test insects. The results, present in Table 1, illustrate the insect metabolism.

Manduca sexta [2] = assay: Insecticide bioassay of 29-fluorophytosterols in tobacco hornworm larvae (artificial diet); type: in vivo, tobacco hornworm (Manduca sexta); conditions: for LC50: Manduca sexta, po, 504 h, day 21, read-out: Dose for 50% reduction, survival (larvae, day 21) (LC50); for LC50 / Dose for 50% reduction, maximum larval weight (EC50) / Dose for 50% reduction, pupation (EC50): parts per million (w/v) in the final diet
Method: as §1
Inequality signs indicate that the effect indicated was beyond the range of doses tested and could not be reliably obtained by extrapolation of the log concentration vs. probit response plots. All values are reported as parts per million (w/v) in the final diet.

Row | Structure (SMILES) | Relative percent sterol: campesterol (Manduca sexta [1]) | Relative percent sterol: cholesterol (Manduca sexta [1]) | Relative percent sterol: desmosterol (Manduca sexta [1]) | Relative percent sterol: sitosterol (Manduca sexta [1]) | LC50 (Manduca sexta [2]) [µg/mL] | Dose for 50% reduction, maximum larval weight (EC50) (Manduca sexta [2]) [ppm] | Dose for 50% reduction, pupation (EC50) (Manduca sexta [2]) [ppm] | Survivors present for analysis (Manduca sexta [2]; hornworms fed at 50 ppm)
1 | CC(C)[C@@H](CCF)CC[C@@H](C)[C@H]1CC[C@H]2[C@@H]3CC=C4C[C@@H](O)CC[C@]4(C)[C@H]3CC[C@]12C [29-fluoroclionosterol] | 9.5(1) % | 82.5(2) % | 2.0(2) % | 5.9(1) % |  |  |  | 
2 | CC(C)/C(=C/CF)CC[C@@H](C)[C@H]1CC[C@H]2[C@@H]3CC=C4C[C@@H](O)CC[C@]4(C)[C@H]3CC[C@]12C [29-fluorofucosterol] | 10.0(2) % | 82.2(2) % | 1.0(1) % | 5.8(2) % | 48 (≈ 111 µM) | 26 | 31 | 
3 | CC(C)[C@@H](/C=C/[C@@H](C)[C@H]1CC[C@H]2[C@@H]3CC=C4C[C@@H](O)CC[C@]4(C)[C@H]3CC[C@]12C)CCF [29-fluorostigmasterol] |  |  |  |  | 4 (≈ 9.29 µM) | 1 | 1 | No survivors
4 | CC(C)[C@H](/C=C/[C@@H](C)[C@H]1CC[C@H]2[C@@H]3CC=C4C[C@@H](O)CC[C@]4(C)[C@H]3CC[C@]12C)CCF [29-fluoroporiferasterol] | 16.3(2) % | 65.6(8) % | 5.8(2) % | 12.3(5) % |  |  |  | 
5 | CC(C)[C@H](CCF)CC[C@@H](C)[C@H]1CC[C@H]2[C@@H]3CC=C4C[C@@H](O)CC[C@]4(C)[C@H]3CC[C@]12C [29-fluorositosterol] | 7.8(3) % | 82.4(8) % | 5.2(8) % | 4.6(4) % | 300 (≈ 693 µM) | 110 | 150 | 
